# Test results: article PMC7577125 (Antimicrobial Agents and Chemotherapy, 2020)
# Values joined by “and” are separate entries in the source; they are usually repeats but may differ in a detail not shown here. Identical values can stand only once. Like-named read-outs stand apart in the source and are kept apart here.
# Assays:
# HBV [1] = experiment: HBV infection of primary human hepatocytes (PHHs); format: cell-based; conditions: Hepatitis B virus, Hepatocyte, PHH
# HBV [2] = experiment: De novo infection models (HepG2-NTCP and PHH), summary; format: cell-based, Hepatitis B virus; conditions: Hepatitis B virus; range over two de novo infection models; read-out: EC50, suppression of cccDNA formation
# HBV cccDNA = experiment: cccDNA formation assay in infected HepG2-NTCP cells (Southern blot); format: cell-based; conditions: Hepatitis B virus, 96 h, 4 days, read-out: cccDNA % of Control
# HBV capsid DNA = experiment: Incoming capsid assay in HepG2-NTCP cells; format: cell-based; conditions: Hepatitis B virus, 3 h, read-out: Capsid DNA % of Control
# HBV [3] = experiment: HBV RNA/DNA analyses in induced HepAD38 cells (Northern/Southern blot); format: cell-based, Hepatitis B virus; conditions: for activity at 2 µM: Hepatitis B virus, HePAD38
# HBV [4] = experiment: Extracellular HBV DNA and pgRNA in HepAD38 cells (qPCR, RT-qPCR); format: cell-based, Hepatitis B virus
# Source text: For HBV RNA Northern blot analysis, total cellular RNA or encapsidated pgRNA samples were resolved in a 1.5% agarose gel containing 2.2 M formaldehyde and transferred onto a Hybond-XL membrane (GE Healthcare). For DNA Southern blot analysis, HBV core DNA or cccDNA samples were resolved by electrophoresis in a 1.2% agarose gel and blotted onto a Hybond-XL membrane. Membranes were probed with either an [α-^32P]UTP (3,000 Ci/mmol; PerkinElmer)-labeled plus-strand-specific (for Northern blot hybridization) or minus-strand-specific (for Southern blot hybridization) HBV riboprobe and exposed to a phosphorimager screen. Extracellular HBV DNA and RNA were copurified from the culture medium of induced HepAD38 cells by using a MinElute virus vacuum kit (Qiagen). Viral DNA was quantified using the above-mentioned qPCR method directly, and HBV RNA was detected by RT-qPCR with the same core region primer/probe set after the removal of DNA contamination by DNase I (Thermo Fisher) treatment.
# HBV genotype A = experiment: microbe, parasite or virus in culture; format: cell-based; conditions: Hepatitis B virus, read-out: Mean antiviral EC50
# HBV genotype B = experiment: microbe, parasite or virus in culture; format: cell-based; conditions: Hepatitis B virus, read-out: Mean antiviral EC50
# HBV genotype C = experiment: microbe, parasite or virus in culture; format: cell-based; conditions: Hepatitis B virus, read-out: Mean antiviral EC50
# HBV Cp Wild type = experiment: microbe, parasite or virus in culture; format: cell-based, Hepatitis B virus
# HBV Cp P25A = experiment: microbe, parasite or virus in culture; format: cell-based, Hepatitis B virus
# HBV Cp T33N = experiment: microbe, parasite or virus in culture; format: cell-based, Hepatitis B virus
# HBV Cp Y38C = experiment: microbe, parasite or virus in culture; format: cell-based, Hepatitis B virus
# HBV Cp I105L = experiment: microbe, parasite or virus in culture; format: cell-based, Hepatitis B virus
# HBV Cp I105T = experiment: microbe, parasite or virus in culture; format: cell-based, Hepatitis B virus
# CYP2C19 = target: T1, CYP2C19 (Homo sapiens, UniProt P33261); experiment: CYP inhibition in human liver microsomes, 2C19; format: in vitro ADME; conditions: 0.1–100 μM
# T1 construct: in human liver microsomes; from tissue; host or cells: human liver microsomes
# [5] = target: pregnane X receptor (PXR) (Homo sapiens, UniProt O75469); experiment: PXR activation / CYP3A4 induction in DPX2 cells; format: in vitro ADME; conditions: 24 h
# Protocol: The determination of CYP induction potential was conducted using CPX2 cells that harbor the human PXR gene and a luciferase reporter gene linked to two promoters identified in the human 3A4 gene.
# [6] = human, rat, cynomolgus monkey
# Protocol: In vitro intrinsic clearance (CLint) was determined as follows. […] The calculated CLint was determined from the relationship CLint = k × (volume of incubation in ml/mg microsomal protein) × (mg protein in liver/g liver weight) × (g liver weight/kg body weight). The values for liver weights, body weights, as well as hepatic blood flows (QH) across species were obtained from data reported previously by Davies and Morris ([28]). Values for liver microsome protein/liver weight for mouse, rat, dog, and monkey were […] ([27]), and that for human was 33 mg/g. The calculation used for the prediction of hepatic clearance (CLpred) is CLpred = (QH × CLint)/(QH + CLint).
# HBV cell culture models = conditions: concentrations of up to 10 μM
# [7] = rat, 1 μM
# HBV [8] = tested on: HBV; parameters: method as in PMID 31711752; conditions: HBeAg-negative patient, day 28 of monotherapy; cited from earlier work
# in vitro [9] = conditions: human
# in vitro [10] = conditions: rat, plasma
# CYP2C8 = CYP2C8 (Homo sapiens, UniProt P10632); experiment: biochemical
# CYP3A = CYP3A (Homo sapiens, UniProt P08684); experiment: CYP inhibition in human liver microsomes, 3A
# HBV [11] = experiment: HBV DNA replication in cell culture systems (HepAD38, HepG2-NTCP, PHHs), summary; conditions: Hepatitis B virus, HePAD38, read-out: EC50, inhibition of HBV DNA replication
# Source text: The first is an HBV-inducible cell line (HepAD38) that bears a single “1.1 copy” of the HBV genome (genotype D, subtype ayw) under the control of a cytomegalovirus (CMV) tetracycline (Tet)-off promoter ([13]), and the second utilizes HBV infection of either a HepG2-derived cell line stably expressing the HBV entry receptor sodium taurocholate cotransporting polypeptide (NTCP) (HepG2-NTCP) or primary human hepatocytes (PHHs). The primary marker measured for inhibition of HBV replication in the cell culture systems is viral DNA.
# HepAD38 cells were trypsinized and then washed three times with phosphate-buffered saline (PBS) to remove traces of Tet. Cells were seeded into 96-well plates in assay medium (DMEM–F-12 medium with 2% Tet-free FBS) and treated with compounds. Supernatants and cells were harvested at 5 days postinduction.
# HepG2-NCTP cells were infected with purified HepAD38 virus at a multiplicity of infection (MOI) of 50 in infection medium (DMEM, 5% FBS, 2% DMSO, 5% PEG 8000). Following infection, HepG2-NTCP cells were washed twice and switched to HepG2-NTCP treatment medium (DMEM, 5% FBS). PHHs were infected with HBV at an MOI of 50 in infection medium and grown in PHH maintenance medium for the duration of the experiment. Compounds were added after infection. […] Intracellular HBV DNA and pgRNA were measured by branch DNA (bDNA) assays (Thermo Fisher).
# [12] = HepAD38, concn ETV 0.01, ABI-H0731 2.0, GLS4 0.5, NVR 3-778 2.5, AT-130 0.8, VRD-32 0.8 μM
# [13] = Hepatitis B virus, Huh-7, read-out: Mean EC50
# Chain of pregnane X receptor (PXR) (O75469 whole entry): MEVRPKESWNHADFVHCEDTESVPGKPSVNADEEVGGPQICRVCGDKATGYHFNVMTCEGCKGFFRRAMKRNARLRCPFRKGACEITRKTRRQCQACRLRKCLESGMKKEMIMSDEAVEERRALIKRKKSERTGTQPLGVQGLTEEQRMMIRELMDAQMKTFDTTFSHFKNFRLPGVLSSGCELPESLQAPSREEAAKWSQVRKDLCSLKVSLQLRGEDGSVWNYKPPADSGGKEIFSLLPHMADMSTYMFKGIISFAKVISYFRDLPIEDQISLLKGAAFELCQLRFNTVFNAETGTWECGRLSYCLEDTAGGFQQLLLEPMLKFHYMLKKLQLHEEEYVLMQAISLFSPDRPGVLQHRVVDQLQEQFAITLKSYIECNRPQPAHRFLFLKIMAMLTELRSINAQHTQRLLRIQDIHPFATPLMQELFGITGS
# Chain of CYP3A (P08684 2-503): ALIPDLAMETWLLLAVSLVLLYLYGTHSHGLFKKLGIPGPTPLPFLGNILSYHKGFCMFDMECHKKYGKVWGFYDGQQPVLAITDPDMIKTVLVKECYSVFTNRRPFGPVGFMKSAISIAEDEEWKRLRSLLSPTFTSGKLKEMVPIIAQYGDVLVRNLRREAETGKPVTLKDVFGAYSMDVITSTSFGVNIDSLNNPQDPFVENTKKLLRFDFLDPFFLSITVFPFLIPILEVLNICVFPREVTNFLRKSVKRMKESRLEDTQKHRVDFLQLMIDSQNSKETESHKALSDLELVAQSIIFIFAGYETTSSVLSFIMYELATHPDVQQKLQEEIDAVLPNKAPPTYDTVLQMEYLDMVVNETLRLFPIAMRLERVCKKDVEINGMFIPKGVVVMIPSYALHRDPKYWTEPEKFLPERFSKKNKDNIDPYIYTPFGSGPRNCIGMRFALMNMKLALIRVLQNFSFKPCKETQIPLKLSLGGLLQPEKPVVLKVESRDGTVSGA
# T1 sequence (P33261 whole entry): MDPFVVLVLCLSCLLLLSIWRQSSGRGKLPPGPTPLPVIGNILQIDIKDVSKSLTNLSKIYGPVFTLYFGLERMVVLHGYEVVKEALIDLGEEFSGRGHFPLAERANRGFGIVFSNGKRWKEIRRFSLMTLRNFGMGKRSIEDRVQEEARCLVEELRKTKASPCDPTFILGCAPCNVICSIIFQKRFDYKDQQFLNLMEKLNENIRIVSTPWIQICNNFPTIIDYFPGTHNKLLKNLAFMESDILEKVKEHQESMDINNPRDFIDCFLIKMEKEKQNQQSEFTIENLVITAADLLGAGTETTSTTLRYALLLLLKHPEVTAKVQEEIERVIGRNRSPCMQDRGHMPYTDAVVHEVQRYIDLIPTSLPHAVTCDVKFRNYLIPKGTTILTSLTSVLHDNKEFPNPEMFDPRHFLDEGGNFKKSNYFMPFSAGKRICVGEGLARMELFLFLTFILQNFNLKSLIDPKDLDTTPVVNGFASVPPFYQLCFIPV
# Chain of CYP2C8 (P10632 whole entry): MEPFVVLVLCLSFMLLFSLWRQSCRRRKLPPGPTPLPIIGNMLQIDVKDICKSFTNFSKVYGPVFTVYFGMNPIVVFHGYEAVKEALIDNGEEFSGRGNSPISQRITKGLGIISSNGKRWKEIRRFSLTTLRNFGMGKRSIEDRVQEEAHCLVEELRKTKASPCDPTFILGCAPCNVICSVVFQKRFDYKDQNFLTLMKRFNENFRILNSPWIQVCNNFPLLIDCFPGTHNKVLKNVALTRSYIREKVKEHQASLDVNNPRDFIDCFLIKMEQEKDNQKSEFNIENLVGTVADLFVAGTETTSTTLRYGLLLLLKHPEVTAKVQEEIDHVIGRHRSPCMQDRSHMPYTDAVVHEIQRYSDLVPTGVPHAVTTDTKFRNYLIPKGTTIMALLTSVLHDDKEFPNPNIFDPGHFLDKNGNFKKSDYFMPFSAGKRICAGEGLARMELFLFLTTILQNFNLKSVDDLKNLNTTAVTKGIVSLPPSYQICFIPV
smiles,measurement,setting,value
O=C(NCc1cnc(C(F)(F)F)s1)c1ccc2c(c1)NC(=O)c1ccccc1S2(=O)=O [ABI-H0731],EC50,"HBV [1]; read-out: Mean EC50, HBeAg",2210 nM
same,EC50,"HBV [1]; read-out: Mean EC50, HBsAg",3000 nM
same,EC50,"HBV [1]; read-out: Mean EC50, pgRNA",1840 nM
same,EC50,"HBV [1]; total intracellular viral DNA, read-out: Mean EC50, viral DNA",154 ± 18 nM
same,EC50,HBV [2],1840 to 7300 nM
same,activity at 0.04 µM,HBV cccDNA; 0.04 μM,89%
same,activity at 0.12 µM,HBV cccDNA; 0.12 μM,95%
same,activity at […],HBV cccDNA; 0.37 μM,98%
same,activity at 1.11 µM,HBV cccDNA; 1.11 μM,94%
same,activity at 3.33 µM,HBV cccDNA; 3.33 μM,86%
same,activity at 10 µM,HBV cccDNA; 10.0 μM,30%
same,activity at 0.04 µM,HBV capsid DNA; 0.04 μM,105%
same,activity at 0.12 µM,HBV capsid DNA; 0.12 μM,107%
same,activity at […],HBV capsid DNA; 0.37 μM,103%
same,activity at 1.11 µM,HBV capsid DNA; 1.11 μM,91%
same,activity at 3.33 µM,HBV capsid DNA; 3.33 μM,73%
same,activity at 10 µM,HBV capsid DNA; 10.0 μM,10%
same,Levels of encapsidated pgRNA by Northern blotting,"HBV [3]; HepAD38, 10-fold over VR EC50",virtually undetectable
same,rcDNA detection by Southern blot,"HBV [3]; HepAD38, 10-fold over VR EC50",could not be detected
same,activity at 2 µM,HBV [3]; read-out: Capsid DNA % of Control,10%
same,activity at 2 µM,HBV [3]; read-out: DNA % of Control (extracted HBV DNA replication intermediates),1%
same,activity at 2 µM,HBV [3]; read-out: Encapsidated pgRNA % of Control,4%
same,secretion of HBV RNA and DNA in the culture medium,"HBV [4]; HepAD38, 10-fold over VR EC50",≤ 3 % of the DMSO control
same,Extracellular DNA content (% of DMSO control),HBV [4]; [12],1.4 % of DMSO control
same,Extracellular pgRNA content (% of DMSO control),HBV [4]; [12],3.1 % of DMSO control
same,EC50,HBV genotype A,113 ± 22 nM
same,EC50,HBV genotype B,85.5 ± 10.9 nM
same,EC50,HBV genotype C,88.2 ± 27 nM
same,EC50,HBV Cp Wild type; [13],146 ± 21 nM
same,Fold shift,HBV Cp Wild type; Wild type,1 fold
same,EC50,HBV Cp P25A; [13],169 ± 41 nM
same,Fold shift,HBV Cp P25A; P25A vs wild type,1.2 fold
same,EC50,HBV Cp T33N; [13],3060 nM
same,Fold shift,HBV Cp T33N; T33N vs wild type,21 fold
same,EC50,HBV Cp Y38C; [13],224 ± 50 nM
same,Fold shift,HBV Cp Y38C; Y38C vs wild type,1.5 fold
same,EC50,HBV Cp I105L; [13],41 ± 6 nM
same,Fold shift,HBV Cp I105L; I105L vs wild type,0.3 fold
same,EC50,HBV Cp I105T; [13],324 ± 20 nM
same,Fold shift,HBV Cp I105T; I105T vs wild type,2.2 fold
same,IC50,CYP2C19,42800 nM
same,"PXR activation activity, % of the control activity",[5]; 10 μM,29%
same,"PXR activation activity, % of the control activity",[5]; 40 μM,68%
same,CLpred as % of liver blood flow,"[6]; mouse, 0.5 μM",12-21%
same,CLpred,[6]; 1 μM,2.3 to 21 mL/min/kg
same,CLpred as % of liver blood flow,[6]; 1 μM,11-32%
same,cytotoxicity,HBV cell culture models,No cytotoxicity was observed
same,% LBF,[7],32%
same,CLpred,[7],21 mL/min/kg
same,decline in viral load in a patient harboring T109M at baseline,HBV [8],1.0 log and 1 log
same,"recovery at 4 days, 10 μM",in vitro [9],67 to 84%
same,fraction unbound at 6 h,in vitro [10],0.02 to 0.052
same,IC50,CYP2C8,27200 nM
same,IC50,CYP3A; probe midazolam,82300 nM
same,IC50,CYP3A; probe test (so in the source),46200 nM
same,EC50,HBV [11],173 to 307 nM
